Source: US20080145346A1, “Methods And Compounds For Altering The Load Of Hepatitis Virus” (Agency for Science, Technology and Research, priority 2003, published 2008)

Test system: hnRNP K
Assay: Electrophoretic Mobility Shift Assay (EMSA) of HBV enhancer II probes with HepG2 nuclear extracts
Assay type: binding, human
Details: 10 μg HepG2 nuclear extracts; 32P end-labelled 28-mer probe
Procedure: 28-mer oligonucleotide probes were designed to contain either the 1752A or 1752G nucleotide with control probes taken from the adjacent upstream sequence. EMSA was performed using HepG2 nuclear extracts with the four respective probes. Probe 1 (SEQ ID NO: 12): Lanes 1 to 4; Probe 2 (SEQ ID NO: 13, A^1752): Lanes 5 to 8; Probe 3 (SEQ ID NO: 14): Lanes 9 to 12; Probe 4 (SEQ ID NO: 15, G^1752): Lanes 13 to 16. Each set of probes contains increasing concentrations (0.0 μg, 0.05 μg, 0.10 μg and 0.15 μg) of non-specific competitor DNA of [poly-(dI)-poly-(dC)] respectively. This competitor DNA is included to minimize the binding of nonspecific proteins to the labeled probes. DNA-protein complexes migrate at a different speed than free DNA molecules. […] Verification of the presence of hnRNP K as the second component in the complex can subsequently be performed by an analysis as shown in FIG. 19. hnRNP K was detected using the 1752A probe (Probe 2, lanes 5 to 8) along with a weaker band of similar size using the 1752G probe (Probe 4, lanes 13 to 16). […]
HBV-hnRNP K interaction was analysed by a method that is known to persons skilled in the art as an “electrophoretic mobility shift assay” or “EMSA”. […] The 1752A probe (Probe 2, lanes 5 to 8) detected hnRNP K in form of a band. A corresponding weaker band of hnRNP was detected by the 1752G probe (Probe 4, lanes 13 to 16 in FIG. 18).

Sequence: AGTTGGGGGAGGAGATTAGGTTAAAGGT (listed as DNA, chemistry not given here) [Probe 2, 28-mer HBV enhancer II oligonucleotide probe containing 1752A]
- densitometric band signal of hnRNP K higher than that detected by Probe 4: about 300%
